Data as given in patent publication US8202856B2 (Merck Serono SA, priority 2007, dated 2012).

What was measured:
S1P1 receptor = S1P1 receptor (Homo sapiens, UniProt P21453); assay: 35S-GTPγS binding, membranes from CHO cells expressing S1P1; format: biochemical; settings: CHO cell membranes expressing S1P1
Summary of the method: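 Membranes (1–10 μg) from CHO cells expressing the receptor were incubated with compound in 20 mM HEPES pH 7.4, 10 mM MgCl2, 140 mM NaCl, 1.7 μM GDP, saponin and 0.2% BSA. [35S]GTPγS (added at 1.5 nM) was then bound for 60 min at 30 °C. Membrane-bound radioactivity, averaged over triplicates, is expressed relative to S1P activation (n=2).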

S1P3 receptor = S1P3 receptor (Homo sapiens, UniProt Q99500); assay: 35S-GTPγS binding, membranes from CHO cells expressing S1P3; format: biochemical; settings: CHO cell membranes expressing S1P3
Sequence of S1P3 receptor (Q99500 whole entry): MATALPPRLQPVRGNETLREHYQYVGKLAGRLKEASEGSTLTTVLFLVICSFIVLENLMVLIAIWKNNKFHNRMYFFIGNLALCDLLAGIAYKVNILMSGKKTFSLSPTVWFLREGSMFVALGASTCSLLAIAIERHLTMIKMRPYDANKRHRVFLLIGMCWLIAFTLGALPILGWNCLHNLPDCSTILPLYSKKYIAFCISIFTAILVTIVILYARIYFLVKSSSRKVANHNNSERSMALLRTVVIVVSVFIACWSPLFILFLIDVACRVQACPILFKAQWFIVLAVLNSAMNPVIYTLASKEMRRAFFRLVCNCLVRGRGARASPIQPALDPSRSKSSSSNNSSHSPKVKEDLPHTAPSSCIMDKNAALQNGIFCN
Description: Receptor binding assay: Membranes were prepared from CHO cells expressing S1P1 or S1P3 for use in ligand and 35S-GTPTS binding studies. Cells were suspended in 50 mM TRIS, pH 7.4, 2 mM EDTA, 250 mM Sucrose (buffer A) and 1× Complete protease inhibitor cocktail (Roche), and disrupted at 4° C. by nitrogen decompression using a cell disruption bomb (Parr Instrument). Following centrifugation at 1000 RPM for 10 min at 4° C., the supernatant was suspended in buffer A and centrifuged again at 19000 RPM for 60 min at 4° C. The pellet was then suspended in 10 mM HEPES, pH 7.4, 1 mM EDTA, 250 mM Sucrose (Buffer B), and 1× Complete EDTA-free protease inhibitor cocktail and homogenized using a potter. Membranes were flash frozen in liquid nitrogen and stored at −80° C. [33P]sphingosine 1-phosphate (3000 Ci/mmol; American Radiolabeled Chemicals, Inc.) was added to test compounds in DMSO. Membranes and WGA SPA beads (GE Healthcare) were added to give a final volume of 100 μl in 96-well plates with assay concentrations of […] [33P]sphingosine 1-phosphate (respectively for S1P1 or S1P3), 50 mM HEPES, pH 7.5, 5 mM MgCl2, 100 mM NaCl, 0.4% fatty acid-free BSA, 1-5 μg/well of proteins and 100 μg/well of WGA SPA beads. Binding was performed for 60 min at room temperature on a shaker and bound radioactivity was measured on a PerkinElmer 1450 MicroBeta counter. Specific binding was calculated by subtracting remaining radioactivity in the presence of 1000-fold excess of unlabeled S1P. Binding data were analyzed using the GraphPad Prism program.
Measurements of ^35S-GTPγS Binding: Membranes (1 to 10 μg protein) prepared as described above, were incubated in 96-well Scintiplates (PerkinElmer) with test compounds diluted in DMSO, in 180 μl of 20 mM HEPES, pH 7.4, 10 mM MgCl2, 2 μg/well Saponin, 0.2% fatty acid free BSA (Assay buffer), 140 mM NaCl and 1.7 μM GDP. The assay was initiated with the addition of 20 μl of 1.5 nM [35S]-GTPγS (1100 Ci/mmol; GE Healthcare) in assay buffer. After 60 min incubation at 30° C. on a shaker, plates were centrifuged for 10 min at 2000 RPM. Supernatant was discarded and membrane bound radioactivity was measured on a PerkinElmer 1450 MicroBeta counter. Triplicate samples were averaged and expressed as response relative to S1P activation in absence of compound (n=2).

Sequence of S1P1 receptor (P21453 whole entry): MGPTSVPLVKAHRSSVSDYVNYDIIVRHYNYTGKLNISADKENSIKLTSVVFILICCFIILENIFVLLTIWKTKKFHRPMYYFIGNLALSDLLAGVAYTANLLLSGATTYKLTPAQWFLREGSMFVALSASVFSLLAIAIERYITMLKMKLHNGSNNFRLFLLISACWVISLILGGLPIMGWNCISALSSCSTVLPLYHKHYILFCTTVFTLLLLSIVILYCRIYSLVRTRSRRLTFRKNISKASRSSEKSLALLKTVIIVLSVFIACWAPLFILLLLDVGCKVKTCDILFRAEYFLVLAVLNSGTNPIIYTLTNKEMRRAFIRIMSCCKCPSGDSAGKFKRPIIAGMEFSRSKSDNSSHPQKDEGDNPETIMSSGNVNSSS

Compound	EC50 (S1P1 receptor) [nM]	EC50 (S1P3 receptor) [nM]
Fc1ccccc1-c1noc(-c2nnn(-c3ccccc3F)c2-c2ccccc2)n1 [Example 13, 3-(2-Fluorophenyl)-5-[1-(2-fluorophenyl)-5-phenyl-1H-1,2,3-triazole-4-yl]-1,2,4-oxadiazole]	29	486
COCCc1c(-c2nc(-c3cccnc3)no2)nnn1-c1ccccc1F [Example 46, 3-{5-[1-(2-fluorophenyl)-5-(2-methoxyethyl)-1H-1,2,3-triazol-4-yl]-1,2,4-oxadiazol-3-yl}pyridine]	516	> 20000
Fc1ccc(-c2noc(-c3nnn(-c4ccccc4F)c3-c3ccccc3)n2)c(F)c1 [Example 11, 3-(2,4-Difluorophenyl)-5-[1-(2-fluorophenyl)-5-phenyl-1H-1,2,3-triazole-4-yl]-1,2,4-oxadiazole]	53	> 30000
COc1ccccc1-c1noc(-c2nnn(-c3ccccc3F)c2-c2ccccc2)n1 [Example 22, 5-[1-(2-Fluorophenyl)-5-phenyl-1H-1,2,3-triazole-4-yl]-3-(2-methoxyphenyl)-1,2,4-oxadiazole]	140	6860
Fc1ccccc1-c1noc(-c2nnn(-c3ccccc3F)c2-c2ccncc2)n1 [Example 32, 4-{1-(2-Fluorophenyl)-4-[3-(2-fluorophenyl)-1,2,4-oxadiazole-5-yl]-1H-1,2,3-triazole-5-yl}pyridine]	20	1200
COc1ccc(-c2noc(-c3nnn(-c4ccccc4F)c3-c3ccncc3)n2)cc1 [Example 48, 4-{1-(2-fluorophenyl)-4-[3-(4-methoxyphenyl)-1,2,4-oxadiazol-5-yl]-1H-1,2,3-triazol-5-yl}pyridine]	127	10400
Fc1ccc(F)c(-c2noc(-c3nnn(-c4ccccc4F)c3CN3CCOCC3)n2)c1 [Example 39, 4-{[4-[3-(2,5-difluorophenyl)-1,2,4-oxadiazol-5-yl]-1-(2-fluorophenyl)-1H-1,2,3-triazol-5-yl]methyl}morpholine]	92	741
Cc1c(-c2nc(-c3ccccc3)no2)nnn1-c1ccccc1F [Example 34, 5-[1-(2-fluorophenyl)-5-methyl-1H-1,2,3-triazol-4-yl]-3-phenyl-1,2,4-oxadiazole]	1100	> 30000
COCc1c(-c2nc(-c3ccc(F)cc3F)no2)nnn1-c1ccccc1F [Example 8, 3-(2,4-Difluorophenyl)-5-[1-(2-fluorophenyl)-5-(methoxymethyl)-1H-1,2,3-triazole-4-yl]-1,2,4-oxadiazole]	744	> 10000
Fc1cc(F)cc(-c2noc(-c3nnn(-c4ccccc4F)c3-c3ccncc3)n2)c1 [Example 102, 4-[4-[3-(3,5-difluorophenyl)-1,2,4-oxadiazol-5-yl]-1-(2-fluorophenyl)-1H-1,2,3-triazol-5-yl]pyridine]	6	149
Fc1ccccc1-c1noc(-c2nnn(-c3ccccc3F)c2-c2cccnc2)n1 [Example 25, 3-{1-(2-Fluorophenyl)-4-[3-(2-fluorophenyl)-1,2,4-oxadiazole-5-yl]-1H-1,2,3-triazole-5-yl}pyridine]	272	> 20000
Fc1cccc(-c2noc(-c3nnn(-c4ccccc4F)c3-c3ccncc3)n2)c1 [Example 83, 4-{1-(2-fluorophenyl)-4-[3-(3-fluorophenyl)-1,2,4-oxadiazol-5-yl]-1H-1,2,3-triazol-5-yl}pyridine]	17	242
COCc1c(-c2nc(-c3ccc4[nH]ccc4c3)no2)nnn1-c1ccccc1F [Example 65, 5-{5-[1-(2-fluorophenyl)-5-(methoxymethyl)-1H-1,2,3-triazol-4-yl]-1,2,4-oxadiazol-3-yl}-1H-indole]	119	> 20000
Fc1ccc(F)c(-c2noc(-c3nnn(-c4ccccc4F)c3C3CCOCC3)n2)c1 [Example 62]	46	> 20000
